# Like-named read-outs stand apart in the source and are kept apart here.
# Experiments:
# M. gallisepticum [1] = test: In vivo evaluation test for M. gallisepticum in chickens (air-sac lesions); conditions: 6 chickens tested
# Candida albicans = test: Antifungal activity, micro-liquid dilution method, Candida albicans; format: cell-based, Candida albicans strain Ca-15; conditions: Candida albicans, 24 h, 30° C., read-out: Antifungal activities: IC50
# Description: (§1) Antifungal activities of the compounds to Candida albicans (strain Ca-15) and Asperilhm fumigatus (strain MA), representative pathogenic fungi, were determined by micro-liquid dilution method using 96-well microplates. A fungal suspension stored under freezing was adjusted to 1×1 O^5 CFU/ml by medium, of which 100 μl portions were charged into each well. The compound of the present invention was dissolved in dimethylsulfoxide (DMSO). Using the resultant solution, 2-fold dilution series were prepared together with the fungal suspension charged into the wells. YNB medium and RPMI medium were used. After cultured for 24 hours at 30° C., evaluation was performed by detecting the turbidity (wave length: 595 nm) using microplate reader.
# Aspergillus fumigatus = test: Antifungal activity, micro-liquid dilution method, Aspergillus fumigatus; format: cell-based, Aspergillus fumigatus strain MA; conditions: Aspergillus fumigatus, 24 h, 30° C., read-out: Antifungal activities: IC50
# Description: as §1
# Eimeria tenella = test: Growth inhibition activities to avian coccidium in primary chicken kidney cells; format: cell-based; conditions: Eimeria tenella; more than 80% of suppression rate regarded as effective; read-out: Effective dose (growth inhibition)
# Description: The kidneys of SPF new born chicken was sterilely removed, which was treated with trypsin and the resultant primary kidney cells were cultured in 24-well plate. Monolayer culture after cultured for 3 days was treated simultaneously with compounds adjusted to predetermined concentration and sporozoit obtained by artificial excystation, which was cultured a 40° C. Premature and mature schizonts were observed under microscope, and the growth inhibition activities (suppression rate) for each treatment group were calculated at a proportion of the number of schizonts for the sporozoit-inoculated, compound-untreated control group (100%).
# [2] = Cytotoxicity to primary chicken kidney culture cells; format: cell-based; conditions: primary chicken kidney cells
# mice spleen cells [3] = test: Suppression of reaction of mice spleen cells to Concanavalin A, in vitro (MTT); format: cell-based, BDF1 mice; conditions: for inhibition at 0.156 µg/mL: 156 ng/ml; for inhibition at 0.312 µg/mL: 312 ng/ml; for inhibition at 0.625 µg/mL: 625 ng/ml
# Description: (§2) To each well of 96 well microtiter plate were added 5×10^5 spleen cells of BDF1 mice suspended in 0.1 ml of RPMI 1640 medium supplemented with 10% bovine fetus serum (supplemented with 2 mM sodium hydrogen carbonate, 50 Units/ml of penicillin, 50 μg/ml of streptomycin, and 5×10^-5 M of 2-mercaptoethanol), and then, 5 μg/ml of Concanavalin A (Con A) or 10 μg/ml of lypopolysaccaride (LPS) and various concentrations of test substance, of which final volume was adjusted to 0.2 ml. Test substances were dissolved in dimethylsulfoxide (DMSO), diluted with RPMI 1640 stated above, and added to the wells so that final concentration of the substances becomes less than 10000 ng/ml. The 96-well microtiter plates were cultured at 37° C. for 3 days in an incubator which was maintained at the humidity of 100%, 5% of carbon dioxide and 95% of air. After cultivation is completed, […] of 6 mg/ml solution of MTT {3-(4,5-dimethylthiazol-2yl)-2,5 diphenyltetrazoliumbromide} (Sigma) is added to each well, which is cultured at 37° C. for […] under the same conditions. After cultivation is completed, formazan formed is dissolved by adding 50 μl of a solution of 20% dodecyl sodium sulfonate (SDS) in 0.02N hydrochloric acid and kept standing at 37° C. for 24 hours. The absorbance (OD) of the formazan which was produced in proportion to the number of alive cells, was determined by using immunoreader equipped with 570 nm filter (see The Journal of Immunological Methods, Vol.65, 55-63, 1983).
# (§3) Cell growth inhibition rate and IC50 value were calculated according to the correlation between the concentration and the absorbance for each substance.
# mice spleen cells [4] = test: Suppression of reaction of mice spleen cells to lypopolysaccaride (LPS), in vitro (MTT); format: cell-based, BDF1 mice; conditions: for inhibition at 0.156 µg/mL: 156 ng/ml; for inhibition at 0.312 µg/mL: 312 ng/ml; for inhibition at 0.625 µg/mL: 625 ng/ml
# Description: as §2, §3
# Mycoplasma = test: MIC to Mycoplasmas (summary in words); format: cell-based
# M. pneumoniae = test: MIC, liquid dilution method, Mycoplasma pneumoniae; conditions: Mycoplasmoides pneumoniae
# M. gallisepticum [5] = test: MIC, liquid dilution method, Mycoplasma gallisepticum; conditions: Mycoplasmoides gallisepticum
# M. hyopneumoniae = test: MIC, liquid dilution method, Mycoplasma hyopneumoniae; conditions: Mesomycoplasma hyopneumoniae
# Serpulina hyodysenteriae = test: MIC, agar dilution method, anaerobic, Serpulina hyodysenteriae; format: cell-based, S. hyodysenteriae ATCC 27164
# Clostridium perfringens = test: microbe, parasite or virus in culture; format: cell-based, C. perfringens ATCC 13124
# [6] = Mus musculus, 72 h, Con A, read-out: Suppression rate
# [7] = Mus musculus, 72 h, LPS, read-out: Suppression rate
smiles,measurement,setting,value
"CN(C)[C@@H]1C(O)=C(C(N)=O)C(=O)[C@@]2(O)C(O)=C3C(=O)c4c(O)ccc(Cl)c4[C@@](C)(O)[C@H]3C[C@@H]12 [CTC, chlortetracycline, reference compound]",air-sac lesions (the number of chickens): (+) slight,"M. gallisepticum [1]; 50 mg/kg × 1, orally",0
same,air-sac lesions (the number of chickens): (++-+++) moderate to severe,"M. gallisepticum [1]; 50 mg/kg × 1, orally",3
same,air-sac lesions (the number of chickens): (-) non,"M. gallisepticum [1]; 50 mg/kg × 1, orally",3
same,number of chickens having lesions,"M. gallisepticum [1]; 50 mg/kg × 1, orally",3
same,air-sac lesions (the number of chickens): (+) slight,"M. gallisepticum [1]; 100 mg/kg × 1, orally",0
same,air-sac lesions (the number of chickens): (++-+++) moderate to severe,"M. gallisepticum [1]; 100 mg/kg × 1, orally",1
same,air-sac lesions (the number of chickens): (-) non,"M. gallisepticum [1]; 100 mg/kg × 1, orally",5
same,number of chickens having lesions,"M. gallisepticum [1]; 100 mg/kg × 1, orally",1
same,air-sac lesions (the number of chickens): (+) slight,"M. gallisepticum [1]; 200 mg × 1, orally",0
same,air-sac lesions (the number of chickens): (++-+++) moderate to severe,"M. gallisepticum [1]; 200 mg × 1, orally",1
same,air-sac lesions (the number of chickens): (-) non,"M. gallisepticum [1]; 200 mg × 1, orally",5
same,number of chickens having lesions,"M. gallisepticum [1]; 200 mg × 1, orally",1
CCCCCc1cccc(O)c1C1=NC(C2SCC(C(O)C(C)(C)C3=NC(C)(C(=O)O)CS3)N2C)CS1 (stereo not drawn) [Compound 2],IC50,Candida albicans; RPMI medium,1.6 µg/mL
same,IC50,Candida albicans; YNB medium,6.3 µg/mL
same,IC50,Aspergillus fumigatus; RPMI medium,0.2 µg/mL
same,IC50,Aspergillus fumigatus; YNB medium,3.2 µg/mL
same,minimal effective concentration,Eimeria tenella,2.5 µg/mL
same,MCC,[2],10 µg/mL
CCCCCc1cccc(O)c1C1=NC(C2SCC(C(OC(C)=O)C(C)(C)C3=NC(C)(C(=O)O)CS3)N2C)CS1 (stereo not drawn) [Compound 3],minimal effective concentration,Eimeria tenella,10 µg/mL
same,MCC,[2],> 10 µg/mL
CCCCCc1cccc(O)c1C1=NC(C2SCC(C(OCc3ccc(Cl)cc3)C(C)(C)C3=NC(C)(C(=O)O)CS3)N2C)CS1 (stereo not drawn) [Compound 6],suppression of the reaction to Con A of spleen cells,mice spleen cells [3],suppressed
same,inhibition at 0.156 µg/mL,mice spleen cells [3]; [6],0%
same,inhibition at 0.312 µg/mL,mice spleen cells [3]; [6],16.5%
same,inhibition at 0.625 µg/mL,mice spleen cells [3]; [6],87.4%
same,inhibition at 1.25 µg/mL,"mice spleen cells [3]; Mus musculus, 72 h, Con A, 1250 ng/ml, read-out: Suppression rate",98.6%
same,inhibition at 2.5 µg/mL,"mice spleen cells [3]; Mus musculus, 72 h, Con A, 2500 ng/ml, read-out: Suppression rate",102%
same,IC50,"mice spleen cells [3]; Mus musculus, Con A",0.399 µg/mL
same,suppression of the reaction to LPS of spleen cells,mice spleen cells [4],suppressed
same,inhibition at 0.156 µg/mL,mice spleen cells [4]; [7],17.7%
same,inhibition at 0.312 µg/mL,mice spleen cells [4]; [7],24.4%
same,inhibition at 0.625 µg/mL,mice spleen cells [4]; [7],84.3%
same,inhibition at 1.25 µg/mL,"mice spleen cells [4]; Mus musculus, 72 h, LPS, 1250 ng/ml, read-out: Suppression rate",98%
same,inhibition at 2.5 µg/mL,"mice spleen cells [4]; Mus musculus, 72 h, LPS, 2500 ng/ml, read-out: Suppression rate",105%
same,IC50,"mice spleen cells [4]; Mus musculus, LPS",0.368 µg/mL
CCCCCc1cccc(OC(C)=O)c1C1=NC(C2SCC(C(OC(C)=O)C(C)(C)C3=NC(C)(C(=O)OC)CS3)N2C)CS1 (stereo not drawn) [Compound 10],minimal effective concentration,Eimeria tenella,> 10 µg/mL
same,MCC,[2],> 10 µg/mL
CCCCCc1cccc(OCc2ccc(Cl)cc2)c1C1=NC(C2SCC(C(O)C(C)(C)C3=NC(C)(C(=O)OC)CS3)N2C)CS1 (stereo not drawn) [Compound 11],minimal effective concentration,Eimeria tenella,10 µg/mL
same,MCC,[2],> 10 µg/mL
CCCCCc1cccc(O)c1C1=NC(C2SCC(C(O)C(C)(C)C3=NC(C)(C(=O)OC)CS3)N2C)CS1 (stereo not drawn) [Compound 12],MICs to Mycoplasmas,Mycoplasma,low MICs
same,minimal effective concentration,Eimeria tenella,0.625 µg/mL
same,MCC,[2],> 10 µg/mL
same,MIC,M. pneumoniae,≤ 0.00625 µg/mL
same,MIC,M. gallisepticum [5],0.2 µg/mL
same,MIC,M. hyopneumoniae,≤ 0.025 µg/mL
CCCCCc1cccc(O)c1C1=NC(C2SCC(C(OCc3ccc(Cl)cc3)C(C)(C)C3=NC(C)(C(=O)OC)CS3)N2C)CS1 (stereo not drawn) [Compound 13],minimal effective concentration,Eimeria tenella,> 10 µg/mL
same,MCC,[2],> 10 µg/mL
CCCCCc1cccc(OCOC)c1C1=NC(C2SCC(C(O)C(C)(C)C3=NC(C)(C(=O)OCOC)CS3)N2C)CS1 (stereo not drawn) [Compound 18],activity to Serpulina (Treponema) hyodysenteriae,Serpulina hyodysenteriae,showed the activity
same,activity to Clostridium perflingens,Clostridium perfringens,showed the activity
same,MICs to Mycoplasmas,Mycoplasma,low MICs
same,minimal effective concentration,Eimeria tenella,10 µg/mL
same,MCC,[2],> 10 µg/mL
same,suppression of the reaction to Con A of spleen cells,mice spleen cells [3],suppressed
same,inhibition at 0.039 µg/mL,"mice spleen cells [3]; Mus musculus, 72 h, Con A, 39 ng/ml, read-out: Suppression rate",14.7%
same,inhibition at 0.078 µg/mL,"mice spleen cells [3]; Mus musculus, 72 h, Con A, 78 ng/ml, read-out: Suppression rate",25.7%
same,inhibition at 0.156 µg/mL,mice spleen cells [3]; [6],75.5%
same,inhibition at 0.312 µg/mL,mice spleen cells [3]; [6],94.9%
same,inhibition at 0.625 µg/mL,mice spleen cells [3]; [6],98.6%
same,IC50,"mice spleen cells [3]; Mus musculus, Con A",0.101 µg/mL
same,suppression of the reaction to LPS of spleen cells,mice spleen cells [4],suppressed
same,inhibition at 0.039 µg/mL,"mice spleen cells [4]; Mus musculus, 72 h, LPS, 39 ng/ml, read-out: Suppression rate",27.4%
same,inhibition at 0.078 µg/mL,"mice spleen cells [4]; Mus musculus, 72 h, LPS, 78 ng/ml, read-out: Suppression rate",41.5%
same,inhibition at 0.156 µg/mL,mice spleen cells [4]; [7],74.6%
same,inhibition at 0.312 µg/mL,mice spleen cells [4]; [7],93.4%
same,inhibition at 0.625 µg/mL,mice spleen cells [4]; [7],101%
same,IC50,"mice spleen cells [4]; Mus musculus, LPS",0.084 µg/mL
same,MIC,M. pneumoniae,0.025 µg/mL
same,MIC,M. gallisepticum [5],1.56 µg/mL
same,MIC,M. hyopneumoniae,0.05 µg/mL
CCCCCc1cccc(OCc2ccc(Cl)cc2)c1C1=NC(C2SCC(C(OCc3ccc(Cl)cc3)C(C)(C)C3=NC(C)(C(=O)OCc4ccc(Cl)cc4)CS3)N2C)CS1 (stereo not drawn) [Compound 21],minimal effective concentration,Eimeria tenella,> 10 µg/mL
same,MCC,[2],> 10 µg/mL
CCCCCc1cccc(O)c1C1=NC(C2SCC(C(O)C(C)(C)C3=NC(C)(C(=O)OCc4ccc(Cl)cc4)CS3)N2C)CS1 (stereo not drawn) [Compound 22],minimal effective concentration,Eimeria tenella,2.5 µg/mL
same,MCC,[2],> 10 µg/mL
same,MIC,M. pneumoniae,0.39 µg/mL
same,MIC,M. gallisepticum [5],> 3.13 µg/mL
same,MIC,M. hyopneumoniae,0.1 µg/mL
CCCCCc1cccc(O)c1C1=NC(C2SCC(C(O)C(C)(C)C3=NC(C)(C(=O)N(C)O)CS3)N2C)CS1 (stereo not drawn) [Compound 25],IC50,Candida albicans; RPMI medium,6.3 µg/mL
same,IC50,Candida albicans; YNB medium,50 µg/mL
same,IC50,Aspergillus fumigatus; RPMI medium,0.2 µg/mL
same,IC50,Aspergillus fumigatus; YNB medium,50 µg/mL
CCCCCc1cccc(O)c1C1=NC(C2SCC(C(O)C(C)(C)C3=NC(C)(C(=O)NC(C)C(=O)OC)CS3)N2C)CS1 (stereo not drawn) [Compound 28],MICs to Mycoplasmas,Mycoplasma,low MICs
same,minimal effective concentration,Eimeria tenella,10 µg/mL
same,MCC,[2],> 10 µg/mL
same,MIC,M. pneumoniae,0.05 µg/mL
same,MIC,M. gallisepticum [5],0.39 µg/mL
same,MIC,M. hyopneumoniae,0.1 µg/mL
CCCCCc1cccc(O)c1C1=NC(C2SCC(C(O)C(C)(C)C3=NC(C)(C(=O)NCCO)CS3)N2C)CS1 (stereo not drawn) [Compound 30],minimal effective concentration,Eimeria tenella,2.5 µg/mL
same,MCC,[2],> 10 µg/mL
same,MIC,M. pneumoniae,0.2 µg/mL
same,MIC,M. gallisepticum [5],0.78 µg/mL
same,MIC,M. hyopneumoniae,0.39 µg/mL
CCCCCc1cccc(O)c1C1=NC(C2SCC(C(O)C(C)(C)C3=NC(C)(C(N)=O)CS3)N2C)CS1 (stereo not drawn) [Compound 31],MCC,[2],10 µg/mL
same,MIC,M. pneumoniae,0.2 µg/mL
same,MIC,M. gallisepticum [5],0.39 µg/mL
same,MIC,M. hyopneumoniae,0.2 µg/mL
CCCCCc1cccc(O)c1C1=NC(C2SCC(C(O)C(C)(C)C3=NC(C)(CO)CS3)N2C)CS1 (stereo not drawn) [Compound 32],minimal effective concentration,Eimeria tenella,10 µg/mL
same,MCC,[2],> 10 µg/mL
same,MIC,M. pneumoniae,0.025 µg/mL
same,MIC,M. gallisepticum [5],0.39 µg/mL
same,MIC,M. hyopneumoniae,0.05 µg/mL
